These results are taken from patent US20020155172A1, “Methods and compounds for decreasing cell toxicity or death” (priority 2000, published 2002).

Experiment [1] deals with polyglutamine aggregates of HA-Q79-GFP expressing cells. The experiment in a line: Filter assay (0.2 μm acetate filter). In kind it is cell-based. The method, then: FIG. 6D is a scanned image of a filter showing the effect of Congo red on pre-formed oligomers as assessed by the filter assay described herein. Cells were treated with PBS or 100 μM of Congo red 6 hours after transfection with Q79-GFP. Lysates from these cells were obtained 42 hours later, and passed through a 0.2 micron pore filter. In addition, Q79 aggregates were treated with Congo red after they were recovered from cells to test for disruption of pre-formed aggregates.
FIG. 7C is an image of an immunoblot of lysates from Q79 expressing cells that were treated with PBS or Congo red during or after transfection, as indicated in the Figure and passed through a 0.2 micron filter. Endogenous caspase-8 and the adapter protein FADD were trapped in the filter in cell lysates containing oligomerized polyglutamine repeats, and probed using a caspase-8 or FADD antibody.
To further confirm the ability of Congo red to inhibit the formation of polyglutamine aggregates, as well as to disrupt preformed aggregates, we analyzed the state of polyglutamine aggregation by examining equal aliquots of total lysates from Congo-red- or vehicle-treated HA-Q79-GFP expressing cells, or the lysates that were treated with Congo red or vehicle after cell lysis. The cell lysates were passed through a 0.2 μm acetate filter and then visualized by immunostaining with anti-HA antibody (FIG. 6D).

Experiment [2] relates to caspase-8. The experiment in a line: Activation of caspase-8 by Western blot. Conditions: HeLa, HA-tagged Q79-GFP. In kind it is cell-based. The method, then:
Expanded polyglutamine repeats recruit and activate caspase-8 (Sanchez et al., supra). We tested if the treatment of cells expressing expanded polyglutamine repeats with Congo red inhibits the activation of caspase-8. HeLa cells were transfected with a hemagglutinin-tagged (HA) […]-GFP construct in the presence or absence of Congo red and the cell lysates were analyzed by Western blot analysis for the expression of caspase-8, or for expression of HA. The appearance of a 45 kilodalton active caspase-8 fragment was detected at 24 hours after transfection, which was before significant loss of cytoplasmic membrane integrity and morphological changes occurred, and near the time of ATP loss (FIG. 5E).

Experiment [3] concerns HeLa cells transfected with Q79-GFP. The experiment is described as follows: Q79-GFP aggregates in HeLa cells by fluorescence microscopy. The format is cell-based. The settings on record: 100 μM. The method, then: FIG. 5I is a set of scanned images of HeLa cells expressing Q79-GFP and subsequently treated with Congo red (100 μM), or ZVAD (100 μM), as detected by fluorescence microscopy.
Changes in energy metabolism have been detected in brains of pre-symptomatic HD animal models, and in pre-symptomatic patients. We detected a pronounced decline in ATP levels upon expanded polyglutamine expression in cells as early as 24 hours. […] Expression of Q79-GFP in HeLa cells transfected with Q79-GFP and subsequently treated with Congo red (100 μM), or ZVAD (100 μM), is shown in FIG. 51.

Experiment [4] has as its system R62 mice. The experiment in a line: Survival. The format is in vivo. The settings on record: infused intraperitoneally. The source says: FIG. 10G is a graph of the effect of PBS (vehicle; delivered intraperitoneally) or Congo red, infused intraperitoneally, on survival of HD transgenic mice.
In addition, the ability of Congo red to inhibit the formation as well as to disrupt preformed polyglutamine oligomers allowed us to examine the role of polyglutamine aggregates in neuronal dysfunction and degeneration characteristic of polyglutamine expansion diseases. In these studies, we used the animal model of Huntington's disease (R62), which expresses the truncated form of huntingtin with 139 CAG repeats Mangiarini et al. (supra). We took advantage of our finding that in addition to inhibiting polyglutamine oligomerization, Congo red also disrupts pre-formed oligomers, thus allowing assessment of the impact of Congo red on disease progression after formation of polyglutamine aggregates and the onset of symptoms. R62 transgenic mice and CBAxC57B1/6 F1 wild type littermates were obtained from Jackson Laboratories (Bar Harbor, Me.) at the age of five weeks. […]
The initial abnormal neurological signs of R62 mice include dyskinesia of the hindlimbs when mice were suspended by the tail, and irregular gait. […] The effect of Congo red on motor performance in R62 mice was also assessed by rotarod studies. […]

Experiment [5] relates to Q79-GFP aggregates. The experiment is described as follows: Decrease of pre-formed Q79-GFP aggregates in vitro. The format is biochemical. The method, then: Q79-GFP was expressed and purified from bacteria using standard molecular biology techniques. These fusion proteins form aggregates in vitro which can be viewed under an inverted fluorescence microscope. The Q79-GFP aggregates were administered Congo red (1 nM to 100 μM) and the ability of Congo red to decrease the aggregate was visually assessed.
This assay was also carried out on Q79-GFP aggregates that were administered compounds known to disrupt other types of aggregates, for example, beta-amyloid fibril aggregates. The Q79-GFP aggregates were administered Iota-carrageenan, dextran, minocycline, rolitetracycline, or Chrysamine G Congo red (100 μM each), and visually examined for the effect of each compound on disruption of the aggregate, as well as the density and size of the aggregates.

The test system of experiment [6] is HSP40 and HSP70. The experiment in a line: Expression of chaperone proteins. In kind it is cell-based. Conditions: Q79-expressing (HA-Q79) HeLa cells. An excerpt: We examined whether the destabilizing effect of Congo red on polyglutamine oligomers in HeLa cells expressing expanded polyglutamine repeats was caused indirectly through increased expression of endogenous chaperones (FIG. 5E). Lysates from Congo red-treated or control cells expressing expanded polyglutamine repeats (HA-[…]) were separated by SDS-PAGE and probed with anti-HSP70, anti-HSP40, and anti-HA antibodies to detect polyglutamine repeats.

As for `Nc1c(/N=N/c2ccc(-c3ccc(/N=N/c4cc(S(=O)(=O)O)c5ccccc5c4N)cc3)cc2)cc(S(=O)(=O)O)c2ccccc12` [Congo red, diphenyldiazo-bis-alpha-napthylaminesulfonate], the “polyglutamine aggregates retained by 0.2 μm filter, lysates treated” value in experiment [1] (cell lysates treated with Congo red after cell lysis) was “undetectable”. Also, the “polyglutamine aggregates retained by 0.2 μm filter, cells treated” value in experiment [1] (cells treated with Congo red (100 μM) 6 hours after transfection) is “undetectable”. For the same molecule, the “FADD and caspase-8 in a complex retained by 0.2 μm filter” value in experiment [1] (lysates of Q79 expressing cells) is “not in Congo red-treated lysates”. Moreover, the “appearance of active caspase-8 (45 kilodalton fragment)” value in experiment [2] was “completely inhibited the appearance of active caspase-8”. In addition, in experiment [3], the “polyglutamine aggregates in cells” value is listed as “displayed fewer polyglutamine aggregates”. The mean survival length in experiment [4] came to 106 days. Moreover, in experiment [5] (1 nM to 100 μM, visually assessed), the “decrease of pre-formed polyglutamine aggregates” value is given as “decreased the pre-formed polyglutamine aggregates”. The “dissolution or disruption of pre-formed expanded polyglutamine repeat aggregates” value in experiment [5] (100 μM each, visually examined) is “dissolution or disruption of pre-formed expanded polyglutamine repeat aggregates were detected”. Moreover, the “expression of HSP40 or HSP70” value in experiment [6] is recorded as “did not induce the expression of HSP40 or HSP70”.
